target: T1, human kinase Mps-1 (Homo sapiens, UniProt P33981); assay: Mps-1 kinase assay (HTRF); type: biochemical; conditions: lowATP; mean; read-out: Mps1 lowATP mean IC50
T1 construct: N-terminally GST-tagged human full length recombinant Mps-1 kinase; purchased Invitrogen, Karslruhe, Germany PV4071
T1 sequence (P33981 1-857): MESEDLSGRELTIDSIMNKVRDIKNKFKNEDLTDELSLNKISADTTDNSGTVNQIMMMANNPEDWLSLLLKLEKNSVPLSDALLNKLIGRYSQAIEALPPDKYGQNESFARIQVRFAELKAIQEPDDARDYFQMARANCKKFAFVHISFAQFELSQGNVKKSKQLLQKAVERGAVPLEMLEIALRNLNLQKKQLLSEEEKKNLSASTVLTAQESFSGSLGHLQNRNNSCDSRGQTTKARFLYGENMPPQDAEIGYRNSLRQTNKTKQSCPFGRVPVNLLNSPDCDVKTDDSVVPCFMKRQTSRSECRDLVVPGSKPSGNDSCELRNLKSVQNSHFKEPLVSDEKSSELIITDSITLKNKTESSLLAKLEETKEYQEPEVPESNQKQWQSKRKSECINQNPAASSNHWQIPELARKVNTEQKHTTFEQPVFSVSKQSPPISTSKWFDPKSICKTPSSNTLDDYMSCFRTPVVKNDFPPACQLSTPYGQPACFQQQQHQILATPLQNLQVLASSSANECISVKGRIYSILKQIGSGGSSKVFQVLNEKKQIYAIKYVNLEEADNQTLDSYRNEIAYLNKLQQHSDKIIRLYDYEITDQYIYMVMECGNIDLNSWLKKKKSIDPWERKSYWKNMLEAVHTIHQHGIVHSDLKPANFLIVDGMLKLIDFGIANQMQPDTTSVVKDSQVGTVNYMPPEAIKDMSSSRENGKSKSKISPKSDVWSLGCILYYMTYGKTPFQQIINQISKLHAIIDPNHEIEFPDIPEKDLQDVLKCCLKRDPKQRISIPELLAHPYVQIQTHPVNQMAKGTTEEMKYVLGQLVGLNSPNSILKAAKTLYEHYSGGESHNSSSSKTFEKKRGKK
How it was run: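 HTRF readout: EDTA-stopped reactions incubated 1 h with europium anti-phospho(Ser/Thr) antibody and streptavidin-XLent, emission ratio 665/620 nm after 350 nm excitation. Kinase step: compound pre-bound 15 min to ~1 nM GST-Mps-1, then 60 min at 22 °C with ATP and biotin-peptide substrate; inhibition scaled between no-inhibitor (0%) and no-enzyme (100%) controls.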

Row | Structure (SMILES) | IC50 [nM]
1 | NS(=O)(=O)c1ccc(CNc2nc3ccccc3n3c(-c4ccc(C(=O)NC5CC5)cc4)cnc23)cc1 [Example 2-25, N-cyclopropyl-4-{4-[(4-sulfamoylbenzyl)amino]imidazo[1,2-a]quinoxalin-1-yl}benzamide] | 160
2 | CC(C)CNc1nc2ccccc2n2c(-c3ccc(C(N)=O)cc3)cnc12 [Example 1-15, 4-{4-[(2-methylpropyl)amino]imidazo[1,2-a]quinoxalin-1-yl}benzamide] | 399
3 | Cn1cc(CNc2nc3ccc(F)cc3n3c(-c4ccc(C(=O)NC5CC5)c(Cl)c4)cnc23)cn1 [Example 2-86, 2-chloro-N-cyclopropyl-4-(8-fluoro-4-{[(1-methyl-1H-pyrazol-4-yl)methyl]amino}imidazo[1,2-a]quinoxalin-1-yl)benzamide] | 1640
4 | CN(C)CCCNc1nc2ccccc2n2c(-c3ccc(C(=O)NC4CC4)cc3)cnc12 [Example 2-20, N-cyclopropyl-4-(4-{[3-(dimethylamino)propyl]amino}imidazo[1,2-a]quinoxalin-1-yl)benzamide] | 744
5 | CCNc1nc2ccccc2n2c(-c3ccc(C(=O)NC4CC4)cc3)cnc12 [Example 2-19, N-cyclopropyl-4-[4-(ethylamino)imidazo[1,2-a]quinoxalin-1-yl]benzamide] | 94
6 | O=C(NC1CC1)c1ccc(-c2cnc3c(NCCCn4ccnc4)nc4cc(F)c(F)cc4n23)cc1 [Example 2-103, N-cyclopropyl-4-(7,8-difluoro-4-{[3-(1H-imidazol-1-yl)propyl]amino}imidazo[1,2-a]quinoxalin-1-yl)benzamide] | 229
7 | CC(C)CNc1nc2ccccc2n2c(-c3ccc(C(=O)O)cc3)cnc12 [Example 1-5, 4-{4-[(2-methylpropyl)amino]imidazo[1,2-a]quinoxalin-1-yl}benzoic acid] | 11900
8 | O=C(NC1CC1)c1ccc(-c2cnc3c(NC[C@@H](O)CO)nc4ccc(F)cc4n23)cc1Cl (stereo in doubt) [Example 2-87, 2-chloro-N-cyclopropyl-4-{4-[(2,3-dihydroxypropyl)amino]-8-fluoroimidazo[1,2-a]quinoxalin-1-yl}benzamide] | 12200
9 | COc1ccccc1CNc1nc2ccccc2n2c(-c3ccc(C(=O)NC4CC4)cc3)cnc12 [Example 2-13, N-cyclopropyl-4-{4-[(2-methoxybenzyl)amino]imidazo[1,2-a]quinoxalin-1-yl}benzamide] | 334
10 | CNC(=O)c1cccc(-c2cnc3c(NCC(C)C)nc4ccccc4n23)c1 [Example 1-20, N-methyl-3-{4-[(2-methylpropyl)amino]imidazo[1,2-a]quinoxalin-1-yl}benzamide] | 17400
11 | CC(C)CNc1nc2ccccc2n2c(-c3ccccc3O)cnc12 [Example 1-35, 2-{4-[(2-methylpropyl)amino]imidazo[1,2-a]quinoxalin-1-yl}phenol] | 4620
12 | O=C(NC1CC1)c1ccc(-c2cnc3c(NCc4ccccc4)nc4ccccc4n23)cc1 [Example 2-16, 4-[4-(benzylamino)imidazo[1,2-a]quinoxalin-1-yl]-N-cyclopropylbenzamide] | 67.5
13 | CCCCNc1nc2ccc(F)cc2n2c(-c3ccc(C(=O)NC4CC4)cc3)cnc12 [Example 2-51, 4-[4-(butylamino)-8-fluoroimidazo[1,2-a]quinoxalin-1-yl]-N-cyclopropylbenzamide] | 39.2
14 | O=C(NC1CC1)c1ccc(-c2cnc3c(NCCCO)nc4cc(F)c(F)cc4n23)cc1 [Example 2-100, N-cyclopropyl-4-{7,8-difluoro-4-[(3-hydroxypropyl)amino]imidazo[1,2-a]quinoxalin-1-yl}benzamide] | 75.3
15 | NS(=O)(=O)CCNc1nc2ccccc2n2c(-c3ccc(C(=O)NC4CC4)cc3)cnc12 [Example 2-38, N-cyclopropyl-4-{4-[(2-sulfamoylethyl)amino]imidazo[1,2-a]quinoxalin-1-yl}benzamide] | 42.2
16 | O=C(NC1CC1)c1ccc(-c2cnc3c(NCCCN4CCOCC4)nc4ccc(F)cc4n23)cc1 [Example 2-42, N-cyclopropyl-4-(8-fluoro-4-{[3-(morpholin-4-yl)propyl]amino}imidazo[1,2-a]quinoxalin-1-yl)benzamide] | 335
17 | O=C(NC1CC1)c1ccc(-c2cnc3c(NCc4ccc(F)cc4)nc4ccc(F)cc4n23)cc1 [Example 2-46, N-cyclopropyl-4-{8-fluoro-4-[(4-fluorobenzyl)amino]imidazo[1,2-a]quinoxalin-1-yl}benzamide] | 76.8
18 | CC(C)CNc1nc2ccccc2n2c(-c3ccccc3C(F)(F)F)cnc12 [Example 1-23, N-(2-methylpropyl)-1-[2-(trifluoromethyl)phenyl]imidazo[1,2-a]quinoxalin-4-amine] | 7710
19 | O=C(NC1CC1)c1ccc(-c2cnc3c(NCc4cccs4)nc4ccc(F)cc4n23)cc1 [Example 2-48, N-cyclopropyl-4-{8-fluoro-4-[(thiophen-2-ylmethyl)amino]imidazo[1,2-a]quinoxalin-1-yl}benzamide] | 40.3
20 | O=C(NC1CC1)c1ccc(-c2cnc3c(NCCc4cccc(F)c4)nc4ccccc4n23)cc1 [Example 2-22, N-cyclopropyl-4-(4-{[2-(3-fluorophenyl)ethyl]amino}imidazo[1,2-a]quinoxalin-1-yl)benzamide] | 312

The next lines start with the values.

Row | IC50 [nM] | Structure (SMILES)
21 | 3730 | CCCCNc1nc2cc(F)c(F)cc2n2c(-c3ccc(C(=O)NC4CC4)c(Cl)c3)cnc12 [Example 2-131, 4-[4-(butylamino)-7,8-difluoroimidazo[1,2-a]quinoxalin-1-yl]-2-chloro-N-cyclopropylbenzamide]
22 | 7720 | CC(C)CNc1nc2ccccc2n2c(-c3ccc(C(=O)NCCC(N)=O)cc3)cnc12 [Example 3-17, N-(3-amino-3-oxopropyl)-4-{4-[(2-methylpropyl)amino]imidazo[1,2-a]quinoxalin-1-yl}benzamide]
23 | 2540 | Cn1ccc(CNc2nc3cc(C#N)ccc3n3c(-c4ccc(C(=O)NC5CC5)c(Cl)c4)cnc23)n1 [Example 2-251, 2-chloro-4-(7-cyano-4-{[(1-methyl-1H-pyrazol-3-yl)methyl]amino}imidazo[1,2-a]quinoxalin-1-yl)-N-cyclopropylbenzamide]
24 | 24.5 | CC(C)CNc1nc2cc(F)c(F)cc2n2c(-c3ccc(C(=O)NC4CC4)cc3)cnc12 [Example 2-106, N-cyclopropyl-4-{7,8-difluoro-4-[(2-methylpropyl)amino]imidazo[1,2-a]quinoxalin-1-yl}benzamide]
25 | 3470 | CNC(=O)Nc1ccc(-c2cnc3c(NCCCO)nc4cc(C#N)ccc4n23)cc1 [Example 2-227, 1-(4-{7-cyano-4-[(3-hydroxypropyl)amino]imidazo[1,2-a]quinoxalin-1-yl}phenyl)-3-methylurea]
26 | 117 | Cc1cc2nc(NCCCO)c3ncc(-c4ccc(C(=O)NC5CC5)c(Cl)c4)n3c2cc1C [Example 2-186, 2-chloro-N-cyclopropyl-4-{4-[(3-hydroxypropyl)amino]-7,8-dimethylimidazo[1,2-a]quinoxalin-1-yl}benzamide]
27 | 52.8 | O=C(NC1CC1)c1ccc(-c2cnc3c(NCc4ccco4)nc4cc(F)c(F)cc4n23)cc1 [Example 2-105, N-cyclopropyl-4-{7,8-difluoro-4-[(furan-2-ylmethyl)amino]imidazo[1,2-a]quinoxalin-1-yl}benzamide]
28 | 71.8 | Cc1cc2nc(NCCC(C)C)c3ncc(-c4ccc(C(=O)NC5CC5)c(Cl)c4)n3c2cc1C [Example 2-181, 2-chloro-N-cyclopropyl-4-{7,8-dimethyl-4-[(3-methylbutyl)amino]imidazo[1,2-a]quinoxalin-1-yl}benzamide]
29 | 624 | CC(=O)Nc1cccc(NC(=O)c2ccc(-c3cnc4c(NCC(C)C)nc5ccccc5n34)cc2)c1 [Example 3-14, N-[3-(acetylamino)phenyl]-4-{4-[(2-methylpropyl)amino]imidazo[1,2-a]quinoxalin-1-yl}benzamide]
30 | 1040 | N#Cc1ccc2c(c1)nc(NCCCCO)c1ncc(-c3ccc(C(=O)NC4CC4)c(Cl)c3)n12 [Example 2-239, 2-chloro-4-{7-cyano-4-[(4-hydroxybutyl)amino]imidazo[1,2-a]quinoxalin-1-yl}-N-cyclopropylbenzamide]
31 | 16000 | CCCNc1nc2cc(F)c(F)cc2n2c(-c3ccc(NC(=O)NC)cc3)cnc12 [Example 2-114, 1-{4-[7,8-difluoro-4-(propylamino)imidazo[1,2-a]quinoxalin-1-yl]phenyl}-3-methylurea]
32 | 106 | N#Cc1ccc2c(c1)nc(NCc1ccccn1)c1ncc(-c3ccc(C(=O)NC4CC4)cc3)n12 [Example 2-213, 4-{7-cyano-4-[(pyridin-2-ylmethyl)amino]imidazo[1,2-a]quinoxalin-1-yl}-N-cyclopropylbenzamide]
